According to US20240108740A1, “THERAPEUTIC COMPOSITIONS INCLUDING SPN10 AND USES THEREOF” (Stealth BioTherapeutics Inc., priority 2022, published 2024):
Residues, ends and D or L forms follow the SMILES beside them.

How the values were obtained:
[1] = test system: Sprague-Dawley rats; experiment: Example 43: cisplatin-induced acute renal injury; type: in vivo, rat; conditions: cisplatin 7 mg/kg i.p.
Procedure: Experimental Protocol: Sprague-Dawley rats (350-400 g) will be given a single dose of cisplatin (7 mg/kg) intraperitoneally (i.p.) on Day 1. Subjects will receive peptide conjugates (3 mg/kg) (n=8), aromatic-cationic peptides (an equivalent molar dose of aromatic-cationic peptide based on the concentration of the aromatic-cationic peptide administered in the peptide conjugate treatment group) (n=8), SPN10(s) (an equivalent molar dose of SPN10 based on the concentration of SPN10 administered in the peptide conjugate treatment group) (n=8), SPN10(s) in combination with aromatic-cationic peptides (e.g., an equivalent molar dose of SPN10 based on the concentration of SPN10 administered in the peptide conjugate treatment group and an equivalent molar dose of aromatic-cationic peptide based on the concentration of aromatic-cationic peptide administered in the peptide conjugate treatment group) (n=8) or saline vehicle (n=8) subcutaneously just prior to cisplatin administration, and once daily for 3 additional days. Subjects will be placed in metabolic cages for the final 24 hours of the trial for urine collection. At the end of the trial, blood samples will be withdrawn from tail veins and the kidneys harvested.
Renal function: Renal function will be assessed by measuring blood urea nitrogen (BUN), serum creatinine, urine creatinine, and urine protein. GFR will be estimated from creatinine clearance, which will be determined from serum and urinary creatinine, and urinary volume.
Renal Histology: Kidneys will be fixed in 10% neutral-buffered formalin and embedded in paraffin wax for sectioning. Three-micron sections will be stained with periodic acid-Schiff (PAS) and analyzed by light microscopy.

[2] = test system: Sprague-Dawley rats; experiment: Example 56: diabetic retinopathy in STZ and HFD/STZ rats; type: in vivo, rat
Procedure: A rat model of diabetes will be established by combination of 6-week HFD and either 1) a low-dose STZ (30 mg/kg) injection, or 2) a single high dose of STZ (65 mg/kg) in Sprague-Dawley rats. See generally, Srinivasan, et al., Pharm. Res. 52(4):313-320 (2005). Controls will be maintained on normal rat chow (NRC). Treatment groups will be as follows: • Group A: 12 HFD/STZ peptide conjugates 10 mg/kg s.c • Group B: 12 HFD/STZ peptide conjugates 3 mg/kg s.c. • Group C: 12 HFD/STZ peptide conjugates 1 mg/kg s.c. • Group D: 10 HFD/STZ control vehicle. s.c. • Group E: 10 NRC control vehicle. s.c. • Group F: 12 HFD/STZ aromatic-cationic peptide (an equivalent molar dose of aromatic-cationic peptide based on concentration of the aromatic-cationic peptide administered in the 10 mg/kg s.c.q.d. peptide conjugate group) • Group G: 12 HFD/STZ aromatic-cationic peptide (an equivalent molar dose of aromatic-cationic peptide based on concentration of the aromatic-cationic peptide administered in the 3 mg/kg s.c.q.d. peptide conjugate group) • Group H: 12 HFD/STZ aromatic-cationic peptide (an equivalent molar dose of aromatic-cationic peptide based on concentration of the aromatic-cationic peptide administered in the 1 mg/kg s.c.q.d. peptide conjugate group) • Group I: 12 HFD/STZ SPN10 (an equivalent molar dose of SPN10 based on concentration of SPN10 administered in the 10 mg/kg s.c.q.d. peptide conjugate group) • Group J: 12 HFD/STZ SPN10 (an equivalent molar dose of SPN10 based on concentration of SPN10 administered in the 3 mg/kg s.c.q.d. peptide conjugate group) • Group K: 12 HFD/STZ SPN10 (an equivalent molar dose of SPN10 based on concentration of SPN10 administered in the 1 mg/kg s.c.q.d. peptide conjugate group). • Group L: SPN10(s) in combination with aromatic-cationic peptides (e.g., an equivalent molar dose of SPN10 based on the concentration of SPN10 administered in the 10 mg/kg s.c.q.d. peptide conjugate treatment group and an equivalent molar dose of aromatic-cationic peptide based on the concentration of aromatic-cationic peptide administered in the 10 mg/kg s.c.q.d. peptide conjugate treatment group) • Group M: SPN10(s) in combination with aromatic-cationic peptides (e.g., an equivalent molar dose of SPN10 based on the concentration of SPN10 administered in the 3 mg/kg s.c.q.d. peptide conjugate treatment group and an equivalent molar dose of aromatic-cationic peptide based on the concentration of aromatic-cationic peptide administered in the 3 mg/kg s.c.q.d. peptide conjugate treatment group) • Group N: SPN10(s) in combination with aromatic-cationic peptides (e.g., an equivalent molar dose of SPN10 based on the concentration of SPN10 administered in the 1 mg/kg s.c.q.d. peptide conjugate treatment group and an equivalent molar dose of aromatic-cationic peptide based on the concentration of aromatic-cationic peptide administered in the 1 mg/kg s.c.q.d. peptide conjugate treatment group)
Eyes will be harvested and subjects assessed for cataract formation, epithelial changes, integrity of the blood-retinal barrier, retinal microvascular structure, and retinal tight junction structure using methods known in the art.

[3] = biological target: cytochrome c (Homo sapiens, UniProt P99999); experiment: Kinetics of cytochrome c reduction (absorbance at 550 nm); type: biochemical
Excerpt: It is hypothesized that the distribution of SPN10(s) or peptide conjugates among the protein complexes in the IMM allows it to serve as additional an relay station to facilitate ET. […] Addition of N-acetylcysteine (NAC) as a reducing agent is anticipated to result in time-dependent increase in absorbance at 550 nm.

[4] = test system: wild-type (WT) mice, middle cerebral artery occlusion; experiment: Cerebral ischemia, no-reflow zone in the brain; type: in vivo, mouse; conditions: i.p. at 0, 6, 24 and 48 hours after ischemia
Procedure: Cerebral ischemia initiates a cascade of cellular and molecular events that lead to brain damage. One such event is an anatomic zone of no-reflow. Cerebral ischemia will be induced by occlusion of the right middle cerebral artery for 30 minutes. Wild-type (WT) mice will be given either saline vehicle (Veh), peptide conjugate, aromatic-cationic peptide, SPN10, SPN10 and aromatic-cationic peptide (2-5 mg/kg for the peptide conjugate and equivalent molar doses of aromatic-cationic peptide and/or SPN10 based on concentration of the aromatic-cationic peptide or SPN10 administered in the peptide conjugate group) i.p. at 0, 6, 24 and 48 hours after ischemia. Mice will be sacrificed 3 days after ischemia, and the brains sliced transversely into 6-8 sections. Sections will be photographed under ultraviolet light to identify the region of no-reflow. The areas of no-reflow in each slice will be digitized using Image J (supplier Rasband WS, Image J, National Institutes of Health, http://rsb.info.nih.gov/ij/). The areas in each slice will be multiplied by the weight of the slice and the results will be summed in order to obtain the mass of the no-reflow areas.

Chain of cytochrome c (P99999 whole entry, species assumed): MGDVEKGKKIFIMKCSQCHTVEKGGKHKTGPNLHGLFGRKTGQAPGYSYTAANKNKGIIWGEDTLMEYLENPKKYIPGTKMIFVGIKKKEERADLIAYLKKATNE

## N=C(N)NCCC[C@H](NC(=O)[C@@H](N)Cc1c[nH]c2ccccc12)C(=O)N[C@@H](Cc1c[nH]c2ccccc12)C(=O)N[C@@H](CCCCN)C(N)=O [SPN10, H-L-Trp-L-Arg-L-Trp-L-Lys-NH2] (H-WRWK-NH2)
[1]
  increase in BUN after cisplatin: attenuate or prevent this effect
  increase in serum creatinine after cisplatin: attenuate or prevent this effect
  reduction in body weight after cisplatin: attenuate or prevent this effect
[2]; HFD/STZ subjects
  non-uniform distribution of tight junctions (claudin-5) along retinal vessels: prevent, reverse, or attenuate this effect
[2]; STZ or HFD/STZ rats
  retinal microvascular changes: reduce retinal microvascular changes
[2]; STZ rat model and HFD/STZ rat model
  epithelial cellular changes: reduce epithelial cellular changes
[2]; compared to control subjects
  inner blood-retinal barrier function: improved inner blood-retinal barrier function
[2]; rat, in vivo
  cataract formation in the lenses of diabetic rats: prevention or reversal of cataract formation
[3]; 100 μM, without NAC
  reduction of cytochrome c by compound alone: will not reduce cytochrome c
[3]; with N-acetylcysteine (NAC)
  rate of NAC-induced cytochrome c reduction: dose-dependently increase
[4]
  anatomic zone of no-reflow in the brain: prevent or reduce
  infarct volume: significant reduction
